# Data reported in PubChem BioAssay AID2060907 (Molecular Pharmacology Branch, DTP, NCI, 2025).
# Tested on: 388556-164-R-J1-PDC complex spheroid viability
# Assay: Anticancer human tumor 388556-164-R-J1-PDC patient-derived colon adenocarcinoma cell line growth inhibition [RAS]
# Conditions: for IC50: curve of first compound; for viability, T/C: stronger effect = lower value
# How it was run: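 Multi-cell-type spheroids: tumor cells plus HUVEC endothelial cells and mesenchymal stem cells. RAS-pathway inhibitors were combined with targeted agents, each dosed in half-log steps down from clinical Cmax, or from 10 microM when Cmax was unknown.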
# 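Also: spheroids exposed to compound for 7 days before readout.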
# 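For viability, T/C in this document: 100% = DMSO vehicle control luminescence.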
structure (smiles),measurement,setting,value
O=C(c1ccc(F)c(F)c1Nc1ccc(I)cc1F)N1CC(O)([C@@H]2CCCCN2)C1 + C#Cc1c(F)ccc2cc(O)cc(-c3ncc4c(N5CC6CCC(C5)N6)nc(OCC56CCCN5CC(F)C6)nc4c3F)c12,IC50,second compound 0.0316 µM,170 nM
same,IC50,second compound 0.1 µM,196 nM
same,IC50,second compound 0.316 µM,135 nM
same,IC50,second compound 1 µM,104 nM
same,IC50,second compound 3.16 µM,84.8 nM
same,IC50,second compound 10 µM,24.1 nM
same,"viability, T/C","second compound 0.0316 µM, first compound 0.00316 µM",100%
same,"viability, T/C","second compound 0.0316 µM, first compound 0.01 µM",95.1%
same,"viability, T/C","second compound 0.0316 µM, first compound 0.0316 µM",79%
same,"viability, T/C","second compound 0.0316 µM, first compound 0.1 µM",61.6%
same,"viability, T/C","second compound 0.0316 µM, first compound 0.316 µM",37.2%
same,"viability, T/C","second compound 0.0316 µM, first compound 1 µM",22.1%
same,"viability, T/C","second compound 0.1 µM, first compound 0.00316 µM",99.7%
same,"viability, T/C","second compound 0.1 µM, first compound 0.01 µM",103%
same,"viability, T/C","second compound 0.1 µM, first compound 0.0316 µM",86%
same,"viability, T/C","second compound 0.1 µM, first compound 0.1 µM",66.1%
same,"viability, T/C","second compound 0.1 µM, first compound 0.316 µM",39.2%
same,"viability, T/C","second compound 0.1 µM, first compound 1 µM",22.2%
same,"viability, T/C","second compound 0.316 µM, first compound 0.00316 µM",100%
same,"viability, T/C","second compound 0.316 µM, first compound 0.01 µM",99.4%
same,"viability, T/C","second compound 0.316 µM, first compound 0.0316 µM",64.3%
same,"viability, T/C","second compound 0.316 µM, first compound 0.1 µM",59.3%
same,"viability, T/C","second compound 0.316 µM, first compound 0.316 µM",35.9%
same,"viability, T/C","second compound 0.316 µM, first compound 1 µM",17.2%
same,"viability, T/C","second compound 1 µM, first compound 0.00316 µM",89.8%
same,"viability, T/C","second compound 1 µM, first compound 0.01 µM",81.8%
same,"viability, T/C","second compound 1 µM, first compound 0.0316 µM",55.4%
same,"viability, T/C","second compound 1 µM, first compound 0.1 µM",60.5%
same,"viability, T/C","second compound 1 µM, first compound 0.316 µM",31.6%
same,"viability, T/C","second compound 1 µM, first compound 1 µM",16.9%
same,"viability, T/C","second compound 3.16 µM, first compound 0.00316 µM",79%
same,"viability, T/C","second compound 3.16 µM, first compound 0.01 µM",62.9%
same,"viability, T/C","second compound 3.16 µM, first compound 0.0316 µM",61.8%
same,"viability, T/C","second compound 3.16 µM, first compound 0.1 µM",51.5%
same,"viability, T/C","second compound 3.16 µM, first compound 0.316 µM",32.2%
same,"viability, T/C","second compound 3.16 µM, first compound 1 µM",15.7%
same,"viability, T/C","second compound 10 µM, first compound 0.00316 µM",56.7%
same,"viability, T/C","second compound 10 µM, first compound 0.01 µM",62.1%
same,"viability, T/C","second compound 10 µM, first compound 0.0316 µM",45.3%
same,"viability, T/C","second compound 10 µM, first compound 0.1 µM",31%
same,"viability, T/C","second compound 10 µM, first compound 0.316 µM",19.1%
same,"viability, T/C","second compound 10 µM, first compound 1 µM",17.1%
CC(C)NCC(C(=O)N1CCN(c2ncnc3c2C(C)CC3O)CC1)c1ccc(Cl)cc1 (centres undefined) + CCn1c(-c2cccnc2C(C)OC)c2c3cc(ccc31)N1CCOC(CC(NC(=O)C(C(C)C)N(C)C(=O)C3(F)CCN(C(=O)C#CC(C)(C)N(C)C)CC3)C(=O)N3CCCC(N3)C(=O)OCC(C)(C)C2)C1,IC50,second compound 0.000949 µM,> 10000 nM
same,IC50,second compound 0.003 µM,> 10000 nM
same,IC50,second compound 0.00949 µM,> 10000 nM
same,IC50,second compound 0.03 µM,> 10000 nM
same,IC50,second compound 0.0949 µM,> 10000 nM
same,IC50,second compound 0.3 µM,> 10000 nM
same,"viability, T/C","second compound 0.000949 µM, first compound 0.0316 µM",104%
same,"viability, T/C","second compound 0.000949 µM, first compound 0.1 µM",98%
same,"viability, T/C","second compound 0.000949 µM, first compound 0.316 µM",99.6%
same,"viability, T/C","second compound 0.000949 µM, first compound 1 µM",89.8%
same,"viability, T/C","second compound 0.000949 µM, first compound 3.16 µM",105%
same,"viability, T/C","second compound 0.000949 µM, first compound 10 µM",85.4%
same,"viability, T/C","second compound 0.003 µM, first compound 0.0316 µM",105%
same,"viability, T/C","second compound 0.003 µM, first compound 0.1 µM",104%
same,"viability, T/C","second compound 0.003 µM, first compound 0.316 µM",102%
same,"viability, T/C","second compound 0.003 µM, first compound 1 µM",99.1%
same,"viability, T/C","second compound 0.003 µM, first compound 3.16 µM",102%
same,"viability, T/C","second compound 0.003 µM, first compound 10 µM",81.8%
same,"viability, T/C","second compound 0.00949 µM, first compound 0.0316 µM",108%
same,"viability, T/C","second compound 0.00949 µM, first compound 0.1 µM",102%
same,"viability, T/C","second compound 0.00949 µM, first compound 0.316 µM",101%
same,"viability, T/C","second compound 0.00949 µM, first compound 1 µM",90.7%
same,"viability, T/C","second compound 0.00949 µM, first compound 3.16 µM",107%
same,"viability, T/C","second compound 0.00949 µM, first compound 10 µM",91.3%
same,"viability, T/C","second compound 0.03 µM, first compound 0.0316 µM",106%
same,"viability, T/C","second compound 0.03 µM, first compound 0.1 µM",111%
same,"viability, T/C","second compound 0.03 µM, first compound 0.316 µM",84.6%
same,"viability, T/C","second compound 0.03 µM, first compound 1 µM",98.4%
same,"viability, T/C","second compound 0.03 µM, first compound 3.16 µM",106%
same,"viability, T/C","second compound 0.03 µM, first compound 10 µM",81.5%
same,"viability, T/C","second compound 0.0949 µM, first compound 0.0316 µM",84.8%
same,"viability, T/C","second compound 0.0949 µM, first compound 0.1 µM",101%
same,"viability, T/C","second compound 0.0949 µM, first compound 0.316 µM",93.8%
same,"viability, T/C","second compound 0.0949 µM, first compound 1 µM",99.9%
same,"viability, T/C","second compound 0.0949 µM, first compound 3.16 µM",106%
same,"viability, T/C","second compound 0.0949 µM, first compound 10 µM",79.2%
same,"viability, T/C","second compound 0.3 µM, first compound 0.0316 µM",94.5%
same,"viability, T/C","second compound 0.3 µM, first compound 0.1 µM",102%
same,"viability, T/C","second compound 0.3 µM, first compound 0.316 µM",86.6%
same,"viability, T/C","second compound 0.3 µM, first compound 1 µM",87.8%
same,"viability, T/C","second compound 0.3 µM, first compound 3.16 µM",95.5%
same,"viability, T/C","second compound 0.3 µM, first compound 10 µM",72.6%
